Biological target: T1, FabK (Streptococcus pneumoniae, UniProt Q9FBC5)
T1 sequence (Q9FBC5 1-324): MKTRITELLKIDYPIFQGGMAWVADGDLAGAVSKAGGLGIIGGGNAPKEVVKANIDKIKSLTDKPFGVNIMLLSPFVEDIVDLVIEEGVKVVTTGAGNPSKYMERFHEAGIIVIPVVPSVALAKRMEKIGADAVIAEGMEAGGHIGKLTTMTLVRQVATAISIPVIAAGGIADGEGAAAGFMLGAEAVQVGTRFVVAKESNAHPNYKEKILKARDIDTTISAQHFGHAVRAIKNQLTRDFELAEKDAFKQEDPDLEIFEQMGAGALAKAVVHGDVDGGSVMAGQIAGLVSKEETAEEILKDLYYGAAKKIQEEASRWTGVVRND
Assay: FabK Enzyme Inhibition Assay
Format: biochemical
Procedure: FabK catalyses the reduction of enoyl-ACPs with the concomitant oxidation of NADH. The reduction of crotonoyl-ACP to butyryl-ACP can be monitored by following the change in absorbance at 340 nm as NADH is oxidized.
Assays were carried out in Costar 3696 half-area plates in a final assay volume of 150 uL on a Spectramax platereader. The substrates (NADH and crotonoyl-ACP) were incubated with FabK enzyme in 100 mM N-[2-acetamido]-2 iminodiacetic acid (ADA), pH 6.5, 100 mM NH4Cl, 4% glycerol at 30° C. and the reaction was monitored at 340 nm.
Using the above assay, compounds were tested for inhibition of FabK. 30 uL of inhibitor was added to a well of the plate. 30 uL of a 250 uM stock of NADH and 60 uL of a 67.5 uM stock of crotonoyl ACP were then added to the well. The plate was incubated at 30° C. for 5 min. The reaction was initiated by adding 30 uL of a 6.25 nM stock of enzyme to the well (also pre-incubated at 30° C.). The reaction was then monitored at A340 nm for 30 min at 30° C. Positive controls were reactions without compound. Negative controls were reactions without enzyme and without compound. Final concentrations in the assay mixture were 25 uM crotonoyl-ACP, 50 uM NADH, and 1.25 nM enzyme.
IC50s were determined for compounds by carrying out the assay at 8 different concentrations of compound (100 uM-0.75 uM) in duplicate. The IC50 was calculated using Grafit software (v 4.09). […]

SMILES: CN(Cc1cn(C)c2ccccc12)C(=O)/C=C/c1cnc2c(c1)CCC(=O)N2 [Example 62, (E)-N-methyl-N-(1-methyl-1H-indol-3-ylmethyl)-3-(7-oxo-5,6,7,8-tetrahydro-1,8-naphthyridin-3-yl)acrylamide]
- Fab K inhibition (result in words): dual Fab I/Fab K inhibitors

Reference: patent US7790716B2, “Fab I inhibitors” (Affinium Pharmaceuticals, Inc., priority 1999, dated 2010)
